Structures are written as SMILES.

For data set [1], the system named is mouse melanoma cell line B16. Kind of data set: CCK-8 cytotoxicity assay, B16 cells. It is filed as cell-based. The settings on record: for IC50: CCK-8, 48 h incubation, mean ± SD, n = 3. The protocol:
(§1) The SiHa, K562, B16 and HK-2 cells were obtained from Wuhan Pricella Biotechnology Co., Ltd. (Wuhan, China). […] 2–5 × 10^3 cells were added to each well of a 96-well plate and incubated for 12 h, followed by the addition of the tested compounds. After incubation for 48 h, 10 μL of the CCK-8 solution was added to each well and incubated for another 2 h. The absorbance of each well was measured at 450 nm using an enzyme-linked immunosorbent assay (ELISA) reader. The experiments were replicated three times. The inhibition rate of cancer cells was calculated using the Formula (1). The half-maximal inhibitory concentration (IC50) value was calculated using GraphPad Prism 8.0 software.
Background: Formazan colour is commonly taken as a measure of viable cells.

For data set [2], the system named is human cervical squamous cell carcinoma cell line SiHa. As to the kind of experiment: CCK-8 cytotoxicity assay, SiHa cells. It is filed as cell-based. The settings on record: for IC50: Homo sapiens, SiHa, CCK-8, 48 h incubation, mean ± SD, n = 3. The protocol: as §1
The test system of data set [3] is human chronic myeloid leukemia cell line K562. As to the kind of experiment: CCK-8 cytotoxicity assay, K562 cells. It is filed as cell-based. The settings on record: for IC50: CCK-8, 48 h incubation, mean ± SD, n = 3. The protocol:
as §1

Data set [4] deals with T1, VEGFR-2 (KDR) protein kinase (Homo sapiens, UniProt P35968).
T1 construct: purchased BPS Biosciences, San Diego, CA, USA
As to the kind of experiment: VEGFR-2 (KDR) Kinase Assay Kit enzyme inhibition assay. It is filed as biochemical. Conditions: Kinase-Glo MAX, 30 °C 45 min, mean ± SD, n = 3. The protocol: Many studies have shown that abnormal VEGFR-2 signaling could induce proliferation of cervical squamous cell carcinoma cells, myeloid leukemia cancer cells, and melanoma cells. […] A VEGFR-2 (KDR) Kinase Assay Kit (BPS Biosciences, San Diego, CA, USA) was used to conduct a VEGFR-2 inhibition assay following the manufacturer’s protocol. Briefly, kinase buffer and ATP and PTK substrate (Poly-Glu,Tyr 4:1) were diluted with distilled water to prepare a master mix solution. The master mix solution, test sample, and VEGFR-2 (KDR) protein kinase (2 ng/μL) were added to a 96-well plate and incubated at 30 °C for 45 min. After incubation, Kinase-Glo™ MAX (BPS Biosciences) reagent was added to each well, and incubated for 15 min at room temperature. Then it was immediately detected with an ELISA reader. The experiments were replicated three times.

The test system of data set [5] is human renal epithelial cell line HK-2. As to the kind of experiment: CCK-8 cytotoxicity assay, HK-2 cells. It is filed as cell-based. Conditions: Homo sapiens, Epithelial cell; CCK-8, 48 h incubation, mean ± SD, n = 3. The protocol:
as §1, with “The cytotoxicity of synthesized compounds against HK-2 cells was also detected. […] The SiHa,” for “The SiHa,”

T1 sequence (P35968 20-1356): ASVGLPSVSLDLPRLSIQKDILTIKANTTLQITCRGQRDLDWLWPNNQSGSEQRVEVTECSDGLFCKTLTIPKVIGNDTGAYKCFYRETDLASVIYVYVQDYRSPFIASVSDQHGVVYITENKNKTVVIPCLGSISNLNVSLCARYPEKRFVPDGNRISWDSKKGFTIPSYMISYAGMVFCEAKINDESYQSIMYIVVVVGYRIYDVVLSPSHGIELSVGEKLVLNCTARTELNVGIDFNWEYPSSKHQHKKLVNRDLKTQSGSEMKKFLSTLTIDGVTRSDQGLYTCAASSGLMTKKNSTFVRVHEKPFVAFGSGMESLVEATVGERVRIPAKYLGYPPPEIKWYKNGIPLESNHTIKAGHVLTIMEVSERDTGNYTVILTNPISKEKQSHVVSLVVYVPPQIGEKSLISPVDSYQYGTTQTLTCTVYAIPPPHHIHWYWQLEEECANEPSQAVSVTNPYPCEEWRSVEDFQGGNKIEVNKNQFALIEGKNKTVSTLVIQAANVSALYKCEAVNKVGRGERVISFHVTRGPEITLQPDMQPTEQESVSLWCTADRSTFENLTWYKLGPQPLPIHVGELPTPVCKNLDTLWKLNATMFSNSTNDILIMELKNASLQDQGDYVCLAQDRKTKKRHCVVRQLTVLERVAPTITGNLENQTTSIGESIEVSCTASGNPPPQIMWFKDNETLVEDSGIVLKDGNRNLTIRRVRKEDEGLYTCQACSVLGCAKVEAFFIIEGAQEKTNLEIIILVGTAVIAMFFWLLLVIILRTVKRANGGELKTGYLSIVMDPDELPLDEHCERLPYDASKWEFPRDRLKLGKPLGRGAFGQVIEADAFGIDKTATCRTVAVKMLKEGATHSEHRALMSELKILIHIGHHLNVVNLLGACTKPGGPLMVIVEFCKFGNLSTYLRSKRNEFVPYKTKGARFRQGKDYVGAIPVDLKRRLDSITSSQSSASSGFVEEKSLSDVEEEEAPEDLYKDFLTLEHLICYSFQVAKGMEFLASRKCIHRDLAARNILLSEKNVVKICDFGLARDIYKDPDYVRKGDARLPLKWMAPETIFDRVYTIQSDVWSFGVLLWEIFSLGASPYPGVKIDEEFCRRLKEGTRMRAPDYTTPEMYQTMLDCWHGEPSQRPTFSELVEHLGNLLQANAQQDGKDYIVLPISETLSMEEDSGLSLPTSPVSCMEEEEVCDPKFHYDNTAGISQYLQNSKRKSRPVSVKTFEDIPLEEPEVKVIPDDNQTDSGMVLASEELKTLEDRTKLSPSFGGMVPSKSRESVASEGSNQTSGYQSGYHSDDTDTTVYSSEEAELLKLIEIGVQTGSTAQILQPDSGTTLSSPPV

One may read the IC50 as the concentration needed to halve the response being measured. Low readings indicate higher potency, high ones lower potency. As for `O=C(Nc1ccc(C(=O)C=Cc2ccccc2)cc1)Nc1ccc(Cl)c(C(F)(F)F)c1` [Compound 2a, 1-(4-chloro-3-(trifluoromethyl)phenyl)-3-(4-cinnamoylphenyl)urea], the IC50 amounted to 10.7 ± 0.78 µM in data set [1] (Mus musculus, B16, 48 h); 4.43 ± 0.16 µM in data set [2]; 12.7 ± 0.45 µM in data set [3] (Homo sapiens, K562, 48 h).
For `COc1ccc(/C=C/C(=O)c2ccc(NC(=O)Nc3ccc(Cl)c(C(F)(F)F)c3)cc2)cc1` [Compound 2b, (E)-1-(4-chloro-3-(trifluoromethyl)phenyl)-3-(4-(3-(4-methoxyphenyl)acryloyl)phenyl)urea], the IC50 in data set [1] (Mus musculus, B16, 48 h) was found to be 8.32 ± 0.61 µM; in data set [2], 5.55 ± 0.26 µM; in data set [3] (Homo sapiens, K562, 48 h), 5.08 ± 0.31 µM.
Turning to `O=C(Nc1ccc(C(=O)/C=C/c2ccc(F)cc2)cc1)Nc1ccc(Cl)c(C(F)(F)F)c1` [Compound 2c, (E)-1-(4-chloro-3-(trifluoromethyl)phenyl)-3-(4-(3-(4-fluorophenyl)acryloyl)phenyl)urea], the IC50 in data set [4] is 0.68 ± 0.03 µM; in data set [5] it was 15.7 ± 1.22 µM; in data set [1] (Mus musculus, B16, 48 h) it was 5.02 ± 0.18 µM; in data set [2], 1.03 ± 0.02 µM; in data set [3] (Homo sapiens, K562, 48 h), 2.05 ± 0.13 µM. Moreover, the “fold increase in cytotoxicity compared to unsubstituted compound 2a, B16” value in data set [1] (ratio of IC50 values vs 2a) came out at 2.1 fold. The “fold increase in cytotoxicity compared to unsubstituted compound 2a, SiHa” value in data set [2] (ratio of IC50 values vs 2a) is recorded as 4.3 fold. Also, in data set [3] (ratio of IC50 values vs 2a), the “fold increase in cytotoxicity compared to unsubstituted compound 2a, K562” value amounted to 6.2 fold.
Turning to `O=C(Nc1ccc(C(=O)/C=C/c2ccc(Cl)cc2)cc1)Nc1ccc(Cl)c(C(F)(F)F)c1` [Compound 2d, (E)-1-(4-chloro-3-(trifluoromethyl)phenyl)-3-(4-(3-(4-chlorophenyl)acryloyl)phenyl)urea], the IC50 in data set [1] (Mus musculus, B16, 48 h) worked out at 12.8 ± 0.84 µM; in data set [2], 4.78 ± 0.14 µM; in data set [3] (Homo sapiens, K562, 48 h), 8.41 ± 0.57 µM.
The like results for `O=C(Nc1ccc(C(=O)/C=C/c2cccc(Cl)c2)cc1)Nc1ccc(Cl)c(C(F)(F)F)c1` [Compound 2e, (E)-1-(4-chloro-3-(trifluoromethyl)phenyl)-3-(4-(3-(3-chlorophenyl)acryloyl)phenyl)urea] were, in that order, 11.3 ± 0.64 µM, 4.71 ± 0.29 µM and 2.91 ± 0.17 µM.
Turning to `COc1cc(/C=C/C(=O)c2ccc(NC(=O)Nc3ccc(Cl)c(C(F)(F)F)c3)cc2)cc(OC)c1OC` [Compound 2f, (E)-1-(4-chloro-3-(trifluoromethyl)phenyl)-3-(4-(3-(3,4,5-trimethoxyphenyl)acryloyl)phenyl)urea], the IC50 was 0.39 ± 0.02 µM in data set [4]; 5.85 ± 0.36 µM in data set [5]; 1.65 ± 0.29 µM in data set [1]; 1.62 to 2.02 µM in data set [1] (Mus musculus, B16, 48 h); 4.89 ± 0.21 µM in data set [2]; 1.68 ± 0.09 µM in data set [3]. Moreover, the IC50 in data set [3] (Homo sapiens, K562, 48 h) lay in the range of 1.62 to 2.02 µM.
On to `Cc1ccc(/C=C/C(=O)c2ccc(NC(=O)Nc3ccc(Cl)c(C(F)(F)F)c3)cc2)cc1` [Compound 2g, (E)-1-(4-chloro-3-(trifluoromethyl)phenyl)-3-(4-(3-(p-tolyl)acryloyl)phenyl)urea], for which the IC50 in data set [1] (Mus musculus, B16, 48 h) was found to be 7.15 ± 0.49 µM; in data set [2], 6.03 ± 0.38 µM; in data set [3] (Homo sapiens, K562, 48 h), 4.19 ± 0.26 µM.
In the case of `COc1cc(/C=C/C(=O)c2ccc(NC(=O)Nc3ccc(Cl)c(C(F)(F)F)c3)cc2)cc(OC)c1` [Compound 2h, (E)-1-(4-chloro-3-(trifluoromethyl)phenyl)-3-(4-(3-(3,5-dimethoxyphenyl)acryloyl)phenyl)urea], the IC50 was 9.87 ± 0.89 µM in data set [5]; 1.62 ± 0.14 µM in data set [1]; 1.62 to 2.02 µM in data set [1] (Mus musculus, B16, 48 h); 2.99 ± 0.27 µM in data set [2]; 2.02 ± 0.12 µM in data set [3]; 1.62 to 2.02 µM in data set [3] (Homo sapiens, K562, 48 h).
On to `CCc1ccc(/C=C/C(=O)c2ccc(NC(=O)Nc3ccc(Cl)c(C(F)(F)F)c3)cc2)cc1` [Compound 2i, (E)-1-(4-chloro-3-(trifluoromethyl)phenyl)-3-(4-(3-(4-ethylphenyl)acryloyl)phenyl)urea], for which the IC50 in data set [1] (Mus musculus, B16, 48 h) came to 8.66 ± 0.58 µM; in data set [2], 7.96 ± 0.26 µM; in data set [3] (Homo sapiens, K562, 48 h), 4.45 ± 0.53 µM.
The matching figures for `COc1ccc(/C=C/C(=O)c2ccc(NC(=O)Nc3ccc(Cl)c(C(F)(F)F)c3)cc2)c(OC)c1OC` [Compound 2j, (E)-1-(4-chloro-3-(trifluoromethyl)phenyl)-3-(4-(3-(2,3,4-trimethoxyphenyl)acryloyl)phenyl)urea]: 9.73 ± 0.98 µM, 6.62 ± 0.28 µM and 2.4 ± 0.22 µM.
The like results for `Cc1ccc(/C=C/C(=O)c2ccc(NC(=O)Nc3ccc(Cl)c(C(F)(F)F)c3)cc2)cc1C` [Compound 2k, (E)-1-(4-chloro-3-(trifluoromethyl)phenyl)-3-(4-(3-(3,4-dimethylphenyl)acryloyl)phenyl)urea] were, in that order, 6.42 ± 0.54 µM, 8.35 ± 0.09 µM and 1.73 ± 0.23 µM.
As for `O=C(Nc1ccc(C(=O)/C=C/c2ccco2)cc1)Nc1ccc(Cl)c(C(F)(F)F)c1` [Compound 2m, (E)-1-(4-chloro-3-(trifluoromethyl)phenyl)-3-(4-(3-(furan-2-yl)acryloyl)phenyl)urea], the IC50 in data set [2] was found to be 6.53 ± 0.24 µM; in data set [3] (Homo sapiens, K562, 48 h) it was 8.95 ± 0.76 µM.
For `O=C(Nc1ccc(C(=O)/C=C/c2cccs2)cc1)Nc1ccc(Cl)c(C(F)(F)F)c1` [Compound 2n, (E)-1-(4-chloro-3-(trifluoromethyl)phenyl)-3-(4-(3-(thiophen-2-yl)acryloyl)phenyl)urea], the IC50 was 2.2 ± 0.1 µM in data set [4]; more than 20 µM in data set [2] (48 h); 15.2 ± 1.2 µM in data set [3] (Homo sapiens, K562, 48 h).
For `COc1ccc(/C=C/C(=O)c2ccc(NC(=O)Nc3ccc(Cl)c(C(F)(F)F)c3)cc2)cc1O` [Compound 2o, (E)-1-(4-chloro-3-(trifluoromethyl)phenyl)-3-(4-(3-(3-hydroxy-4-methoxyphenyl)acryloyl)phenyl)urea], the IC50 was 0.31 ± 0.02 µM in data set [4]; 19.1 ± 1.05 µM in data set [5]; 3.06 ± 0.22 µM in data set [1] (Mus musculus, B16, 48 h); 1.22 ± 0.07 µM in data set [2]; 1.51 ± 0.16 µM in data set [3] (Homo sapiens, K562, 48 h).
On to `COc1cc(/C=C/C(=O)c2ccc(NC(=O)Nc3ccc(Cl)c(C(F)(F)F)c3)cc2)ccc1O` [Compound 2p, (E)-1-(4-chloro-3-(trifluoromethyl)phenyl)-3-(4-(3-(4-hydroxy-3-methoxyphenyl)acryloyl)phenyl)urea], for which the concentration for half-maximal inhibition (IC50) in data set [5] was found to be 13.9 ± 0.58 µM; in data set [1] (Mus musculus, B16, 48 h) it was 4.37 ± 0.28 µM; in data set [2], 4.25 ± 0.14 µM; in data set [3] (Homo sapiens, K562, 48 h) it was 3.42 ± 0.18 µM.
As for `O=C(Nc1ccc(C(=O)/C=C/c2ccc(O)c(O)c2)cc1)Nc1ccc(Cl)c(C(F)(F)F)c1` [Compound 2q, (E)-1-(4-chloro-3-(trifluoromethyl)phenyl)-3-(4-(3-(3,4-dihydroxyphenyl)acryloyl)phenyl)urea], the IC50 in data set [4] was 0.55 ± 0.04 µM; in data set [5], 24.3 ± 1.71 µM; in data set [1] (Mus musculus, B16, 48 h), 4.49 ± 0.24 µM; in data set [2] it was 2.53 ± 0.09 µM; in data set [3] (Homo sapiens, K562, 48 h) it was 1.12 ± 0.1 µM.
Take `COc1cc(/C=C/C(=O)c2ccc(NC(=O)Nc3ccc(Cl)c(C(F)(F)F)c3)cc2)cc(OC)c1O` [Compound 2r, (E)-1-(4-chloro-3-(trifluoromethyl)phenyl)-3-(4-(3-(4-hydroxy-3,5-dimethoxyphenyl)acryloyl)phenyl)urea]: the IC50 was 11.3 ± 0.66 µM in data set [5]; 2.93 ± 0.29 µM in data set [1] (Mus musculus, B16, 48 h); 2.22 ± 0.1 µM in data set [2]; 0.97 ± 0.06 µM in data set [3] (Homo sapiens, K562, 48 h).
Turning to `O=C(Nc1ccc(C(=O)/C=C/c2ccc(O)cc2)cc1)Nc1ccc(Cl)c(C(F)(F)F)c1` [Compound 2s, (E)-1-(4-chloro-3-(trifluoromethyl)phenyl)-3-(4-(3-(4-hydroxyphenyl)acryloyl)phenyl)urea], the IC50 stood at 4.29 ± 0.52 µM in data set [1] (Mus musculus, B16, 48 h); 8.96 ± 0.03 µM in data set [2]; 6.47 ± 0.36 µM in data set [3] (Homo sapiens, K562, 48 h).
